Columns and labels:
[1] = system: LTB4 biosynthesis in purified human neutrophils; assay: LTB4 biosynthesis in human polymorphonuclear neutrophils (in vitro phospholipase A2 assay); assay type: cell-based; conditions: Neutrophil; 25 μM; human PMN
Experimental: The compounds of the invention are tested in an in vitro phospholipase A2 assay to determine the ability of the compounds to inhibit the biosynthesis of platelet-activating factor and LTB4 in purified human neutrophils.
A leukocyte enriched blood sample obtained from a healthy donor is procured by leukophoresis using a Haemonetics model 30+ blood processor (Biological Specialties, Inc., Lansdale, Penn.). The top "platelet-rich" layer is removed after a low speed spin (35 xg, 15 min, 25° C.) of the sample. The remaining cell suspension is centrifuged (400 xg, 10 min, 25° C.) to sediment the remaining cells. The supernatant is discarded and the cell pellet resuspended in 120 ml HBSS (without Ca^++ /Mg^++). The cell suspension is subjected to ficoll-hypaque sedimentation (Histopaque 1077, 400 xg, 30 min, 25° C.). Contaminating erythrocytes are lysed by hypotonic shock (1 min). The cells are then washed once with 40 ml of HBSS and resuspended with HBSS (without Ca^++ /Mg^++) to a concentration of 2.5×10^7 cells/ml for further use. Greater than 95% purity is obtained, as assessed by microscopic examination.
One ml of human PMN (2.5×10^7 cells/ml) is incubated with vehicle or drugs (10 μl) for 10 minutes at 30° C. After preincubation, an equal volume of HBSS (1 ml) containing 2.4 mM CaCl2, 6 μM calcium ionophore A23187 and 50 μCi [^3 H]-acetate is then incubated at 30° C. for 15 minutes. An aliquot (100 μl) of the reaction mixture is taken out and mixed with 900 μl of 15% ethanol. LTB4 is extracted by using solid phase extraction on reverse phase C18 columns to remove excess [^3 H]-acetate and PAD. The C18 column is prewashed once with 2 ml of ethanol and water. The sample aliquot is acidified with 0.1N HCl to pH 3 before applying to the column. The column is then washed with 2 ml of water followed by 2 ml of 15% ethanol and 2 ml of petroleum ether to remove excess labeled acetate. The sample is eluted with 2 ml of ethyl acetate. The collected samples are dried with nitrogen and resuspended in 0.5 ml RIA buffer. The quantity of LTB4 in the sample is obtained from RIA determination. For PAF determination, the reaction is terminated by addition of 5 ml chloroform:methanol:acetic acid (2:1:0.04, v/v/v). [^3 H]-PAF is obtained by Bligh and Dyer extraction. The chloroform phase is removed and dried under nitrogen. The residue is redissolved in 75 μl of chloroform:methanol (80:20, v/v). [^3 H]-PAF is resolved from other phospholipids by TLC on RPC18 plates with a solvent system of chloroform:methanol:water (2:3:1, v/v/v) and is quantitated using a Berthold automated TLC linear analyzer.
Data presented are the mean +/- s.d. of the values relative to control A23187 stimulated cells for each experiment assayed in triplicate. Percent inhibition when used is calculated as:
% Inhibition=100-[(x.div.Control)×100].
Dose response analysis is performed by non-linear regression analysis for curve fitting and IC50 determination.

cyclooxygenase (PGE2) = assay: resident murine peritoneal macrophage assay, PGE2; assay type: cell-based, mouse (Swiss Webster); conditions: Mus musculus, Peritoneal macrophage
Experimental: The ability of the compounds of the invention to act as inhibitors of the enzymes 5-lipoxygenase and cyclooxygenase is measured in the resident murine peritoneal macrophage assay.
Resident peritoneal macrophages are collected from female Swiss Webster mice (49 days old, 20-25 gms, Buckshire) by lavaging with 7-8 ml Hanks Balanced Salt Solution (HBSS) without Ca^++ and Mg^++ (GIBCO). The lavage fluid from several mice is pooled and centrifuged at 4° C. for 10 minutes at 400 xg. The cell pellet is resuspended in Medium 199 (GIBCO) with HEPES buffer containing 100 μg/ml gentamicin. Two ml of the cell suspension (4×10^6 cells) are then plated on 35 mm culture dishes (Nunc).
A macrophage monolayer is established after a 1-1.5 hour incubation of the cells at 37° C. in an atmosphere of […] and 5% CO2. The monolayers are washed 2× with 2 ml HBDSS, containing Ca^++ and Mg^++ after which 2 ml Medium 199 supplemented with 10% freshly thawed heat-inactivated fetal bovine serum and 100 μg/ml gentamicin is added for an overnight incubation.
Residual serum and cellular debris are removed from the monolayers by washing 3× with 2 ml HBSS containing Ca^++ and Mg^++. Macrophages are preincubated for 5 minutes with 1 ml serum-free M199 containing 10 μl dimethyl sulfoxide (DMSO) vehicle or test compound prior to cell activation with zymosan ([…]) or arachidonic acid (AA) (2 μM). After 2 hours, the supernatants are removed and either assayed for LTC4 and PGE2 by radioimmunoassay (RIA) directly or stored at -20° C. In all cases, results are expressed as ng metabolite/4×10^6 cells.
Raw data (dpm) may be stored directly onto an "Autostart" tape using the HP85 in room C-096. The raw data are converted to ng metabolite/4-10^6cells using the standard curve by a "RIANAL" program (HP85) or a "NONLIN" program (HP9816). Results are then expressed as percent inhibition of zymosan induced, leukotriene or prostaglandin synthesis (control) using the equation: [formula]

TPA-induced ear edema = assay: 12-o-tetradecanoylphorbol acetate (TPA)-induced murine ear edema assay; assay type: in vivo, mouse (Swiss Webster); conditions: TPA
Summary of the method: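 Female Swiss Webster mice (~8 weeks, groups of six) got AA 2 mg/ear or TPA 2 μg/ear topically on the right ear, acetone on the left. Compounds dosed topically or s.c. 30 min before AA or 30 min after TPA. Ear thickness difference measured by caliper at 1 h (AA) or 4 h (TPA), expressed as % change from control.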

- IC50 (cyclooxygenase (PGE2); zymosan stimulation, read-out: PGE2 zymosan IC50): 140 nM
SMILES: CCCCCCCCCCC/C=C\CCCCC(=O)C1=C(O)COC1=O [Example 18, (Z)-4-Hydroxy-3-(1-oxo-6-octadecenyl)-2(5H)-furanone]
- inhibition at 25 µM [1]: 83%
- inhibition at 0.3 µM (cyclooxygenase (PGE2); arachidonic acid stimulation, 0.3 μM, read-out: PGE2 AA % Inhibition): -17%
- Subcutaneous % Inhibition at 50 m/kg (TPA-induced ear edema; on line of vehicle EPW): 28%
- Subcutaneous % Inhibition at 50 m/kg (TPA-induced ear edema; on line of vehicle acetone): 37%
- Topical % Inhibition at 200 μg (TPA-induced ear edema; vehicle EPW): 53%
- Topical % Inhibition at 200 μg (TPA-induced ear edema; vehicle acetone): 1%

From patent publication US5242945A, “Tetronic and thiotetronic acid derivatives as phospholipase A2 inhibitors” (American Home Products Corporation, priority 1991, dated 1993)
